“And” between values parts separate entries of the source, which are not always exact repeats. Equal entries are not always repeated.
Experiments:
Assay type in all cases: cell-based, human
TP53 mRNA [1] = test: TP53 knockdown by TaqMan, pRS-p53 shRNA in HCT116 cells
Description: In another specific embodiment, the invention provides a method for determining synthetic lethality between p53 and CHEK1. Stable clones having p53 gene silenced was generated. The pRS-TP53 1026 shRNA plasmid was deconvoluted from a library plasmid pool for TP53 by transforming bacteria with the pool and looking for clones containing only the plasmid of interest. The sequences used are as follows: pRS-p53 1026 19mer sequence: […] (SEQ ID NO:43); primers for sequence specific PCR: Forward: […] (SEQ ID NO:44), Reverse: […] (SEQ ID NO:45). Plasmids were identified by sequence specific PCR, and confirmed by sequencing. Stable p53-clones were generated by transfecting HCT116 cells using FuGENE 6 (Roche) with the pRS-TP53 1026 plasmid. Cells were split into 10 cm dishes plus 1 ug/ml puromycin 48 hours later, and maintained until colonies were evident (5-7 days). Clones were picked into a 96 well plate, maintained in 1 ug/ml puromycin, and tested for knockdown by TaqMan using the TP53 and hGUS Pre-Developed Assay Reagent (Applied Biosystems). To measure transient knockdown by the pRS-TP53 1026 plasmid, HCT116 cells were transfected using Lipofectamine 2000 (Invitrogen), and RNA harvested 24 hours later. TP53 transcript levels were assessed by TaqMan. […]

TP53 mRNA [2] = test: TP53 mRNA silencing in A549 cells stably transfected with pRS-p53; settings: stable A549 pRS-p53 cells versus pRS cells
Description: (§1) Next, supertransfection of the CHEK1 siRNA pool into cells stably expressing TP53 shRNAs was evaluated to determine if it could be used to investigate genetic interactions (SL) between these molecules. Matched cell lines +/−TP53 expression were generated by selecting stable clones of A549 lung cancer cell lines containing either empty pRS vector or pRS-p53. […] Both cell lines were then supertransfected with either control luciferase siRNA (luc, 100 nM) or the CHEK1 siRNA pool (100 nM total; 33 nM each of 3 siRNAs) and their cell cycle profiles examined with or without exposure to the DNA damaging agent, doxorubicin (Dox, FIG. 5). Cell cycle profiles of pRS-p53 cells were not appreciably different from those of pRS cells in the absence of Dox.
as §1, with “molecules. […]” for “molecules.”, “Cell cycle profiles of pRS-p53 cells were not appreciably different from those of pRS cells in the absence of Dox.” left out

CHEK1 and TP53 mRNA = test: Competition between stable TP53 shRNA and CHEK1 siRNA pool, TaqMan (FIG. 4A); settings: HCT116 clone A11, siRNA pool 100 nM, 24 hours
Description: A pool of three siRNAs targeting CHEK1 was transiently transfected into WT and pRS-p53 stably transfected HCT116 cells (clone A11). CHEK1 and TP53 mRNA levels were measured by Taqman analysis (left and right panels, respectively). […] STK6 and KNSL1 siRNAs were transiently co-transfected into WT SW480 cells and KNSL1 siRNAs were supertransfected into pRS-STK6 stably transfected SW480 cells. STK6 mRNA levels were measured by Taqman analysis. For the left set of bars, STK6 siRNA (10 nM) was used alone or together with one of three different individual KNSL1 siRNAs (10 nM each). […]
To test whether TP53 silencing in HCT116 clone A11 was subject to competition with siRNAs, cells of this clone were supertransfected with a pool of CHEK1-specific siRNAs. […] RNA was harvested 24 hours post transfection and knockdown was assessed by TaqMan analysis using the CHK1 or TP53 and hGUS Pre-Developed Assay Reagent (Applied Biosystems). […] This is in contrast to the observation that two different siRNAs targeting distinct mRNAs compete with each other when transfected together, effectively decreasing the efficacy of one or both of the siRNAs used. pRS and pRS-p53 HCT116 cells were transiently transfected with siRNA pools for ˜800 genes (see Example 3, infra) and measured effects on cellular growth by Alamar Blue assay. […]

HeLa cells = test: siRNA library screen for sensitization to Cisplatin (Alamar Blue growth)
Description: The primary screen with each agent was performed in HeLa cells, which are TP53 deficient. HeLa cells were transfected with siRNA pools, and the drugs were added 4 hrs later. […] The growth of cells +/−drug was assessed at 72 hrs post-transfection.
siRNA transfection was carried out as follows: one day prior to transfection, 50 microliters of a chosen cell line, e.g., cervical cancer HeLa cells (ATCC, Cat. No. CCL-2), grown in DMEM/10% fetal bovine serum (Invitrogen, Carlsbad, Calif.) to approximately 90% confluency were seeded in a 384-well tissue culture plate at 450 cells/well. For each transfection 20 microliters of OptiMEM (Invitrogen) was mixed with 2 microliter of siRNA (Dharmacon, Lafayette, Colo.) from a 10 micromolar stock. For each transfection, a ratio of 20 microliter of OptiMEM was mixed with 1 microliter of Oligofectamine reagent (Invitrogen) and incubated 5 minutes at room temperature. Then 20-microliter OptiMEM/Oligofectamine mixture was dispensed into each well of the 96 well plate with the OptiMEM/siRNA mixture, mixed and incubated 15-20 minutes at room temperature.
The internal environment of the proliferating cell is more reduced than that of non-proliferating cells.

TP53-negative A549 cells = test: Alamar Blue cell growth, cisplatin after siRNA supertransfection, TP53-negative cells (FIG. 20)
Description: A549 cells stably transfected with empty vector (pRS, left panel) or an shRNA targeting TP53 (pRS-TP53, right panel) were supertransfected with siRNAs to luciferase, BRCA1, or BRCA2 prior to treatment with the DNA damaging agent, cisplatin. Cell growth was measured 72 hrs post-transfection using Alamar Blue.
The cell lines used in this example were HeLa cells, TP53-positive A549 cells and TP53-negative A549 cells. The matched pair of TP53 positive and negative cells were generated by stable transfection of short hairpin RNAs (shRNAs) targeting TP53 (monthly highlt highlight, November 2003). […]
After 4 hours, 100 microliter/well of DMEM/10% fetal bovine serum with or without DNA damage agents was added to each well to reach the final concentration of each agents as described above. […] Samples from the 6-well plates were analyzed for cell cycle profiles and samples from 96-well plates were analyzed for cell growth with Alamar Blue assay.
For Alamar Blue assay, the media from the 96-well plates was removed, and 100 uL/well complete media containing 10% (vol/vol) alamarBlue reagent (BioSource International, Inc) and 1/100th volume 1M Hepes buffer tissue culture reagent was added. The plates were then incubated 1-4 hours at 37° C. and fluorescence was measured by exciting at 544 nm and detecting emission at 590 nm with […]ax Gemini-Xs Spectrofluorometer (Molceular Devices). […]

[3] = cisplatin, HeLa cell growth, 72 hrs

Compound	TP53 mRNA silencing (TP53 mRNA [1]; stable clones A5 and A11)	TP53 mRNA silencing (TP53 mRNA [1]; transient transfection, 24 hr post transfection)	TP53 mRNA silencing (TP53 mRNA [2])	competitive inhibition of silencing between TP53 shRNA and CHEK1 siRNA pool (CHEK1 and TP53 mRNA)	EC25 (HeLa cells; 400 ng/ml stated to be an <EC25 concentration)	EC10 (HeLa cells; [3])	EC50 (HeLa cells; [3])	IC50 (TP53-negative A549 cells; cells transfected with BRCA1 or BRCA2 siRNAs)	IC50 (TP53-negative A549 cells; cells transfected with control siRNA (luciferase))
GACTCCAGTGGTAATCTAC [pRS-p53]	> 95%	~80%	> 90% and ~90%	does not affect	–	–	–	–	–
N.N.[Cl][Pt][Cl] [cisplatin, cis-Diaminedichloroplatinum]	–	–	–	–	> 0.4 µg/mL	~0.1 µg/mL	~0.4 µg/mL	~100 pM	~1000 pM

From US20050181385A1, “Synthetic lethal screen using RNA interference” (priority 2003, published 2005)
